The record followed here is the supplement of paper PMC10307832.

What all share (assay): relative viability (nuclei count vs DMSO), 5 days (fraction); higher = more cells survive
Compound in experiment [1]: C[As](C)SC[C@H](NC(=O)CC[C@H](N)C(=O)O)C(=O)NCC(=O)O [Darinaparsin] + CC1(C)CCC(c2ccc(Cl)cc2)=C(CN2CCN(c3ccc(C(=O)NS(=O)(=O)c4ccc(N[C@H](CCN5CCOCC5)CSc5ccccc5)c(S(=O)(=O)C(F)(F)F)c4)cc3)CC2)C1 [Navitoclax] (partner 0.5 µM)
The procedure, abridged: (§1)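 Lung cancer cell lines were seeded in 1536-well plates and dosed by pin tool the next day, with either a single drug or a fixed anchor-drug dose combined with five library-drug doses (not always all listed) spaced in √10 steps. Five days later, one step fixed the cells and stained their nuclei (final 0.05% Triton X-100, 1% formaldehyde, 1 ug/ml Hoechst), and nuclei were counted on 4× images. Relative viability is the nuclei count in treated wells divided by the count in vehicle wells, and each value is the median of duplicate plates.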

Compound in the experiment “Darinaparsin + Dasatinib”: C[As](C)SC[C@H](NC(=O)CC[C@H](N)C(=O)O)C(=O)NCC(=O)O [Darinaparsin] + Cc1nc(Nc2ncc(C(=O)Nc3c(C)cccc3Cl)s2)cc(N2CCN(CCO)CC2)n1 [Dasatinib] (partner 0.075 µM)
The procedure, abridged:
as §1

Compound in the experiment “Darinaparsin + Foretinib”: C[As](C)SC[C@H](NC(=O)CC[C@H](N)C(=O)O)C(=O)NCC(=O)O [Darinaparsin] + COc1cc2c(Oc3ccc(NC(=O)C4(C(=O)Nc5ccc(F)cc5)CC4)cc3F)ccnc2cc1OCCCN1CCOCC1 [Foretinib] (partner 0.25 µM)
In outline:
as §1

Compound in experiment [2]: C[As](C)SC[C@H](NC(=O)CC[C@H](N)C(=O)O)C(=O)NCC(=O)O [Darinaparsin] + Nc1nc2[nH]cc(CCc3ccc(C(=O)N[C@@H](CCC(=O)O)C(=O)O)cc3)c2c(=O)[nH]1 [Pemetrexed] (partner 0.2 µM)
The procedure, abridged: as §1

With NCI-H2085, the relative viability in experiment [1] (first compound 0.08 µM) stood at 1.36; in experiment [1] (first compound 0.8 µM) it was 1.18; in experiment [1] (first compound 2.53 µM), 1.09; in experiment [1] (first compound 8 µM), 1.2; with Darinaparsin + Dasatinib (first compound 0.08 µM) it was 0.238; with Darinaparsin + Dasatinib (first compound 0.8 µM), 0.25. The relative viability was 0.235 in the experiment with Darinaparsin + Dasatinib (first compound 2.53 µM); 0.223 in the experiment with Darinaparsin + Dasatinib (first compound 8 µM); 1.12 with Darinaparsin + Foretinib (first compound 0.08 µM); 0.975 with Darinaparsin + Foretinib (first compound 0.8 µM); 0.863 with Darinaparsin + Foretinib (first compound 2.53 µM); 0.902 with Darinaparsin + Foretinib (first compound 8 µM). Besides, the relative viability came to 0.881 in experiment [2] (first compound 0.08 µM), 0.962 in experiment [2] (first compound 0.8 µM), 0.854 in experiment [2] (first compound 2.53 µM) and 0.961 in experiment [2] (first compound 8 µM).
NCI-H2405: the relative viability stood at 0.801 in experiment [1] (first compound 0.08 µM); 0.829 in experiment [1] (first compound 0.8 µM); 0.781 in experiment [1] (first compound 2.53 µM); 0.88 in experiment [1] (first compound 8 µM); 0.203 with Darinaparsin + Dasatinib (first compound 0.08 µM); 0.232 in the experiment with Darinaparsin + Dasatinib (first compound 0.8 µM). Besides, the relative viability with Darinaparsin + Dasatinib (first compound 2.53 µM) turned out to be 0.223; with Darinaparsin + Dasatinib (first compound 8 µM) it was 0.221; in the experiment with Darinaparsin + Foretinib (first compound 0.08 µM) it was 0.994; with Darinaparsin + Foretinib (first compound 0.8 µM), 1.05; with Darinaparsin + Foretinib (first compound 2.53 µM), 0.929; with Darinaparsin + Foretinib (first compound 8 µM), 1.07. The relative viability in experiment [2] (first compound 0.08 µM) came out at 1.24; in experiment [2] (first compound 0.8 µM) it was 0.872; in experiment [2] (first compound 2.53 µM), 1.07; in experiment [2] (first compound 8 µM) it was 1.14.
As to NCI-H1666, the relative viability turned out to be 1.09 in experiment [1] (first compound 0.08 µM); 0.938 in experiment [1] (first compound 0.8 µM); 1.23 in experiment [1] (first compound 2.53 µM); 1.09 in experiment [1] (first compound 8 µM); 0.817 in the experiment with Darinaparsin + Dasatinib (first compound 0.08 µM); 0.814 in the experiment with Darinaparsin + Dasatinib (first compound 0.8 µM). Moreover, the relative viability with Darinaparsin + Dasatinib (first compound 2.53 µM) came out at 0.799; with Darinaparsin + Dasatinib (first compound 8 µM), 0.832; in the experiment with Darinaparsin + Foretinib (first compound 0.08 µM), 0.995; with Darinaparsin + Foretinib (first compound 0.8 µM), 0.888; with Darinaparsin + Foretinib (first compound 2.53 µM), 1.19; with Darinaparsin + Foretinib (first compound 8 µM), 1.06. Also, the relative viability in experiment [2] (first compound 0.08 µM) came to 0.91; in experiment [2] (first compound 0.8 µM), 0.854; in experiment [2] (first compound 2.53 µM), 0.984; in experiment [2] (first compound 8 µM), 0.955.
Regarding BEN, the relative viability was determined as 0.0561 in experiment [1] (first compound 0.08 µM); 0.0673 in experiment [1] (first compound 0.8 µM); 0.0517 in experiment [1] (first compound 2.53 µM); 0.0548 in experiment [1] (first compound 8 µM); 0.305 with Darinaparsin + Dasatinib (first compound 0.08 µM); 0.308 with Darinaparsin + Dasatinib (first compound 0.8 µM). The relative viability with Darinaparsin + Dasatinib (first compound 2.53 µM) came out at 0.31; in the experiment with Darinaparsin + Dasatinib (first compound 8 µM), 0.371; with Darinaparsin + Foretinib (first compound 0.08 µM) it was 0.668; with Darinaparsin + Foretinib (first compound 0.8 µM), 0.708; in the experiment with Darinaparsin + Foretinib (first compound 2.53 µM) it was 0.621; with Darinaparsin + Foretinib (first compound 8 µM) it was 0.691. Besides, the relative viability was 0.873 in experiment [2] (first compound 0.08 µM), 0.848 in experiment [2] (first compound 0.8 µM), 0.818 in experiment [2] (first compound 2.53 µM) and 0.859 in experiment [2] (first compound 8 µM).
As to NCI-H1650, the relative viability in experiment [1] (first compound 0.08 µM) was 1.7; in experiment [1] (first compound 0.8 µM) it was 1.17; in experiment [1] (first compound 2.53 µM), 1.14; in experiment [1] (first compound 8 µM), 1.28; with Darinaparsin + Dasatinib (first compound 0.08 µM), 0.397; in the experiment with Darinaparsin + Dasatinib (first compound 0.8 µM) it was 0.36. For the same cell line, the relative viability with Darinaparsin + Dasatinib (first compound 2.53 µM) was 0.343; in the experiment with Darinaparsin + Dasatinib (first compound 8 µM), 0.297; with Darinaparsin + Foretinib (first compound 0.08 µM), 0.869; in the experiment with Darinaparsin + Foretinib (first compound 0.8 µM), 1.06; in the experiment with Darinaparsin + Foretinib (first compound 2.53 µM), 0.791; with Darinaparsin + Foretinib (first compound 8 µM), 1.33. Moreover, the relative viability in experiment [2] (first compound 0.08 µM) was 0.426; in experiment [2] (first compound 0.8 µM), 0.369; in experiment [2] (first compound 2.53 µM), 0.342; in experiment [2] (first compound 8 µM), 0.396.
For the cell line HARA, the relative viability in experiment [1] (first compound 0.08 µM) turned out to be 1.39; in experiment [1] (first compound 0.8 µM) it was 1.07; in experiment [1] (first compound 2.53 µM), 1.08; in experiment [1] (first compound 8 µM), 1.37; with Darinaparsin + Dasatinib (first compound 0.08 µM) it was 0.3; with Darinaparsin + Dasatinib (first compound 0.8 µM) it was 0.282. In addition, the relative viability with Darinaparsin + Dasatinib (first compound 2.53 µM) is 0.232; in the experiment with Darinaparsin + Dasatinib (first compound 8 µM), 0.259; with Darinaparsin + Foretinib (first compound 0.08 µM), 0.944; in the experiment with Darinaparsin + Foretinib (first compound 0.8 µM), 0.927; with Darinaparsin + Foretinib (first compound 2.53 µM) it was 0.712; in the experiment with Darinaparsin + Foretinib (first compound 8 µM), 0.938. Also, the relative viability in experiment [2] (first compound 0.08 µM) was determined as 0.269; in experiment [2] (first compound 2.53 µM) it was 0.22; in experiment [2] (first compound 8 µM), 0.294.
In the case of RERF-LC-KJ, the relative viability in experiment [1] (first compound 0.08 µM) turned out to be 1.08; in experiment [1] (first compound 0.8 µM) it was 0.92; in experiment [1] (first compound 2.53 µM) it was 0.749; in experiment [1] (first compound 8 µM), 1.08; with Darinaparsin + Dasatinib (first compound 0.08 µM) it was 0.916; with Darinaparsin + Dasatinib (first compound 0.8 µM), 0.87. Further, the relative viability is 0.621 with Darinaparsin + Dasatinib (first compound 2.53 µM); 0.758 with Darinaparsin + Dasatinib (first compound 8 µM); 1.03 with Darinaparsin + Foretinib (first compound 0.08 µM); 0.931 with Darinaparsin + Foretinib (first compound 0.8 µM); 0.859 with Darinaparsin + Foretinib (first compound 2.53 µM); 0.961 in the experiment with Darinaparsin + Foretinib (first compound 8 µM). In addition, the relative viability in experiment [2] (first compound 0.08 µM) was 0.513; in experiment [2] (first compound 0.8 µM), 0.441; in experiment [2] (first compound 2.53 µM), 0.448; in experiment [2] (first compound 8 µM) it was 0.484.
